We go through 21 compounds from patent US20190388425A1, “SUBSTITUTED IMIDAZOPYRIDINPYRIMIDINES” (Bayer Pharma Aktiengesellschaft, priority 2017, published 2019).

Where only a bound is given, the exact number is not on record here.

The test deals with T1, human full-length MKNK1 (Homo sapiens, UniProt Q9BUB5, T385D).
T1 construct: GST (N); purchased Carna Biosciences 02-145; host or cells: insect cells (baculovirus expression system)
The test can be described thus: MKNK1 kinase high ATP assay (TR-FRET). Format: biochemical. As to conditions: TR-FRET, 2 mM ATP (high ATP), 15 min preincubation with enzyme, 30 min reaction at 22° C.; read-out: MKNK1 IC50. In a few lines:
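Full-length human MKNK1 (T385D) preincubated 15 min at 22 °C with compound in HEPES pH 7.5/MgCl2/DTT buffer; reaction with 2 mM ATP (final) and 0.06 μM biotinylated peptide (final), 30 min at 22 °C.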
On the technique in general: Time-resolved FRET reads energy transfer from a long-lived donor to a nearby acceptor.

T1 sequence (Q9BUB5 1-424 isoform Q9BUB5-2 T344D): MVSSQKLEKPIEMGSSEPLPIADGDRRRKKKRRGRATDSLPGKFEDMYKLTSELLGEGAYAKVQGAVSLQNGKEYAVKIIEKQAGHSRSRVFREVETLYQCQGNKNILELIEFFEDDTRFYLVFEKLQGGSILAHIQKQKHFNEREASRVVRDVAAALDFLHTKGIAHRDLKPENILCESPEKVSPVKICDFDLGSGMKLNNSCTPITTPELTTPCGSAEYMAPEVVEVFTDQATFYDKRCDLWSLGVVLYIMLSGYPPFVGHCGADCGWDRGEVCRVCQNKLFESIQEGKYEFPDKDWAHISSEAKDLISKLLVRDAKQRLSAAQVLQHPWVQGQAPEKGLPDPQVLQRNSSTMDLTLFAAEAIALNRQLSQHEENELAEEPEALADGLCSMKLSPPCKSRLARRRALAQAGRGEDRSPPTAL

The IC50 is the concentration that gives 50% inhibition. Take `Cc1cc(Nc2ncnc3sc4c(c23)CC[C@H](C(=O)N2CC[C@H](N(C)C)C2)C4)c(=O)n2c1C(=O)NC21CS(=O)(=O)C1` [Example 70, 6-{[(7S)-7-{[(3S)-3-(Dimethylamino)pyrrolidin-1-yl]carbonyl}-5,6,7,8-tetrahydro[1]benzothieno[2,3-d]pyrimidin-4-yl]amino}-8-methyl-2H-spiro[imidazo[1,5-a]pyridine-3,3′-thietane]-1,5-dione 1′,1′-dioxide]: the IC50 came to 800 pM.
On to `Cc1cc(Nc2ncnc3sc4c(c23)CC[C@H](C(=O)N2CC[C@H](N(C)C)C2)C4)c(=O)n2c1C(=O)N[C@]21CC[C@@](O)(C(F)(F)F)CC1` [Example 63, (cis)-6′-{[(7S)-7-{[(3S)-3-(Dimethylamino)pyrrolidin-1-yl]carbonyl}-5,6,7,8-tetrahydro[1]benzothieno[2,3-d]pyrimidin-4-yl]amino}-4-hydroxy-8′-methyl-4-(trifluoromethyl)-2′H-spiro[cyclohexane-1,3′-imidazo[1,5-a]pyridine]-1′,5′-dione], for which the IC50 is 1600 pM.
Regarding `Cc1cc(Nc2ncnc3sc4c(c23)CC[C@H](C(=O)N2CCN(C)[C@H](C)C2)C4)c(=O)n2c1C(=O)NC21CCC1` [Example 25, 6′-{[(7S)-7-{[(3R)-3,4-Dimethylpiperazin-1-yl]carbonyl}-5,6,7,8-tetrahydro[1]benzothieno[2,3-d]pyrimidin-4-yl]amino}-8′-methyl-2′H-spiro[cyclobutane-1,3′-imidazo[1,5-a]pyridine]-1′,5′-dione], the IC50 turned out to be 400 pM.
Take `Cc1cc(Nc2ncnc3sc4c(c23)CC[C@H](C(=O)N2CC(N(C)C)C2)C4)c(=O)n2c1C(=O)NC21CCC1` [Example 23, 6′-{[(7S)-7-{[3-(Dimethylamino)azetidin-1-yl]carbonyl}-5,6,7,8-tetrahydro[1]benzothieno[2,3-d]pyrimidin-4-yl]amino}-8′-methyl-2′H-spiro[cyclobutane-1,3′-imidazo[1,5-a]pyridine]-1′,5′-dione]: the 50% inhibitory concentration (IC50) was 400 pM.
For the compound `Cc1cc(Nc2ncnc3sc4c(c23)CC[C@H](C(=O)N2CC(N(C)C)C2)C4)c(=O)n2c1C(=O)NC21CCCC1` [Example 40, 6′-{[(7S)-7-{[3-(Dimethylamino)azetidin-1-yl]carbonyl}-5,6,7,8-tetrahydro[1]benzothieno[2,3-d]pyrimidin-4-yl]amino}-8′-methyl-2′H-spiro[cyclopentane-1,3′-imidazo[1,5-a]pyridine]-1′,5′-dione], the IC50 was found to be 300 pM.
For `CC1(C)NC(=O)c2c(Cl)cc(Nc3ncnc4sc5c(c34)CC[C@H](C(=O)N3CCC3)C5)c(=O)n21` [Example 112, 6-{[(7S)-7-(Azetidine-1-carbonyl)-5,6,7,8-tetrahydro[1]benzothieno[2,3-d]pyrimidin-4-yl]amino}-8-chloro-3,3-dimethyl-2,3-dihydroimidazo[1,5-a]pyridine-1,5-dione], the IC50 worked out at 200 pM.
Turning to `Cc1cc(Nc2ncnc3sc4c(c23)CC[C@H](C(=O)N2CC(C#N)C2)C4)c(=O)n2c1C(=O)NC21CCC(F)(F)CC1` [Example 54, 1-({(7S)-4-[(4,4-Difluoro-8′-methyl-1′,5′-dioxo-1′,5′-dihydro-2′H-spiro[cyclohexane-1,3′-imidazo[1,5-a]pyridin]-6′-yl)amino]-5,6,7,8-tetrahydro[1]benzothieno[2,3-d]pyrimidin-7-yl}carbonyl)azetidine-3-carbonitrile], the IC50 came out at 4400 pM.
As for `Cc1cc(Nc2ncnc3sc4c(c23)CC[C@H](C(=O)N2CC[C@H](N(C)C)C2)C4)c(=O)n2c1C(=O)NC21CCC(F)(F)CC1` [Example 56, 6′-{[(7S)-7-{[(3S)-3-(Dimethylamino)pyrrolidin-1-yl]carbonyl}-5,6,7,8-tetrahydro[1]benzothieno[2,3-d]pyrimidin-4-yl]amino}-4,4-difluoro-8′-methyl-2′H-spiro[cyclohexane-1,3′-imidazo[1,5-a]pyridine]-1′,5′-dione], the IC50 stood at 2000 pM.
As for `Cc1cc(Nc2ncnc3sc4c(c23)CC[C@H](C(=O)N(C)C)C4)c(=O)n2c1C(=O)NC21CCCCC1` [Example 2, (7S)—N, N-Dimethyl-4-[(8′-methyl-1′,5′-dioxo-1′,5′-dihydro-2′H-spiro[cyclohexane-1,3′-imidazo[1,5-a]pyridin]-6′-yl)amino]-5,6,7,8-tetrahydro[1]benzothieno[2,3-d]pyrimidine-7-carboxamide], the IC50 is 200 pM.
`Cc1cc(Nc2ncnc3sc4c(c23)CC[C@H](C(=O)N2CC[C@H](N(C)C)C2)C4)c(=O)n2c1C(=O)NC21CSC1` [Example 49, 6-{[(7S)-7-{[(3S)-3-(Dimethylamino)pyrrolidin-1-yl]carbonyl}-5,6,7,8-tetrahydro[1]benzothieno[2,3-d]pyrimidin-4-yl]amino}-8-methyl-2H-spiro[imidazo[1,5-a]pyridine-3,3′-thietane]-1,5-dione]: the IC50 was 500 pM.
As to `Cc1cc(Nc2ncnc3sc4c(c23)CC[C@H](C(=O)O)C4)c(=O)n2c1C(=O)NC21CCC1` [Example 16, (7S)-4-[(8′-Methyl-1′,5′-dioxo-1′,5′-dihydro-2′H-spiro[cyclobutane-1,3′-imidazo[1,5-a]pyridin]-6′-yl)amino]-5,6,7,8-tetrahydro[1]benzothieno[2,3-d]pyrimidine-7-carboxylic acid], the IC50 came out at 3900 pM.
Take `Cc1cc(Nc2ncnc3sc4c(c23)CC[C@H](C(=O)N2CC[C@H](N(C)C)C2)C4)c(=O)n2c1C(=O)NC21CCC1` [Example 24, 6′-{[(7S)-7-{[(3S)-3-(Dimethylamino)pyrrolidin-1-yl]carbonyl}-5,6,7,8-tetrahydro[1]benzothieno[2,3-d]pyrimidin-4-yl]amino}-8′-methyl-2′H-spiro[cyclobutane-1,3′-imidazo[1,5-a]pyridine]-1′,5′-dione]: the IC50 was 200 pM.
For the compound `CN(C)[C@H]1CCN(C(=O)[C@H]2CCc3c(sc4ncnc(Nc5cc(Cl)c6n(c5=O)C(C)(C)NC6=O)c34)C2)C1` [Example 114, 8-Chloro-6-({(7S)-7-[(3S)-3-(dimethylamino)pyrrolidine-1-carbonyl]-5,6,7,8-tetrahydro[1]benzothieno[2,3-d]pyrimidin-4-yl}amino)-3,3-dimethyl-2,3-dihydroimidazo[1,5-a]pyridine-1,5-dione], the IC50 was less than 100 pM.
Turning to `NC(=O)[C@H]1CCc2c(sc3ncnc(Nc4cc(Cl)c5n(c4=O)C4(CCCC4)NC5=O)c23)C1` [Example 85, (7S)-4-[(8′-Chloro-1′,5′-dioxo-1′,5′-dihydro-2′H-spiro[cyclopentane-1,3′-imidazo[1,5-a]pyridin]-6′-yl)amino]-5,6,7,8-tetrahydro[1]benzothieno[2,3-d]pyrimidine-7-carboxamide], the IC50 was 200 pM.
To `O=C1NC2(CCC2)n2c1c(Cl)cc(Nc1ncnc3sc4c(c13)CC[C@H](C(=O)N1C[C@H]3C[C@@H]1CO3)C4)c2=O` [Example 118, 8′-chloro-6′-({(7S)-7-[(1R,4R)-2-oxa-5-azabicyclo[2.2.1]heptan-5-ylcarbonyl]-5,6,7,8-tetrahydro[1]benzothieno[2,3-d]pyrimidin-4-yl}amino)-2′H-spiro[cyclobutane-1,3′-imidazo[1,5-a]pyridine]-1′,5′-dione] belongs 400 pM.
As for `Cc1cc(Nc2ncnc3sc4c(c23)CC[C@H](C(=O)N2CC(C)(O)C2)C4)c(=O)n2c1C(=O)NC21CCCCC1` [Example 6, 6′-({(7S)-7-[(3-Hydroxy-3-methylazetidin-1-yl)carbonyl]-5,6,7,8-tetrahydro[1]benzothieno[2,3-d]pyrimidin-4-yl}amino)-8′-methyl-2′H-spiro[cyclohexane-1,3′-imidazo[1,5-a]pyridine]-1′,5′-dione], the IC50 turned out to be 1500 pM.
With `NC(=O)[C@H]1CCc2c(sc3ncnc(Nc4cc(Cl)c5n(c4=O)C4(CSC4)NC5=O)c23)C1` [Example 119, (7S)-4-[(8-chloro-1,5-dioxo-1,5-dihydro-2H-spiro[imidazo[1,5-a]pyridine-3,3′-thietan]-6-yl)amino]-5,6,7,8-tetrahydro[1]benzothieno[2,3-d]pyrimidine-7-carboxamide], the half-inhibitory concentration (IC50) worked out at 900 pM.
Turning to `Cc1cc(Nc2ncnc3sc4c(c23)CC[C@H](C(=O)N2CC(N(C)C)C2)C4)c(=O)n2c1C(=O)NC21CCCCC1` [Example 19, 6′-{[(7S)-7-{[3-(Dimethylamino)azetidin-1-yl]carbonyl}-5,6,7,8-tetrahydro[1]benzothieno[2,3-d]pyrimidin-4-yl]amino}-8′-methyl-2′H-spiro[cyclohexane-1,3′-imidazo[1,5-a]pyridine]-1′,5′-dione], the IC50 was 900 pM.
Regarding `Cc1cc(Nc2ncnc3sc4c(c23)CC[C@H](C(=O)N2CCN(C)[C@@H](C)C2)C4)c(=O)n2c1C(=O)NC21CCCCC1` [Example 14, 6′-{[(7S)-7-{[(3S)-3,4-Dimethylpiperazin-1-yl]carbonyl}-5,6,7,8-tetrahydro[1]benzothieno[2,3-d]pyrimidin-4-yl]amino}-8′-methyl-2′H-spiro[cyclohexane-1,3′-imidazo[1,5-a]pyridine]-1′,5′-dione], the IC50 turned out to be 800 pM.
On to `Cc1cc(Nc2ncnc3sc4c(c23)CC[C@H](C(=O)N2CC[C@H](N(C)C)C2)C4)c(=O)n2c1C(=O)NC21CCCCC1` [Example 9, 6′-{[(7S)-7-{[(3S)-3-(Dimethylamino)pyrrolidin-1-yl]carbonyl}-5,6,7,8-tetrahydro[1]benzothieno[2,3-d]pyrimidin-4-yl]amino}-8′-methyl-2′H-spiro[cyclohexane-1,3′-imidazo[1,5-a]pyridine]-1′,5′-dione], for which the IC50 is 100 pM.
For `Cc1cc(Nc2ncnc3sc4c(c23)CC[C@H](C(=O)N2CC(C#N)C2)C4)c(=O)n2c1C(=O)NC2(C)C` [Example 29, 1-({(7S)-4-[(3,3,8-Trimethyl-1,5-dioxo-1,2,3,5-tetrahydroimidazo[1,5-a]pyridin-6-yl)amino]-5,6,7,8-tetrahydro[1]benzothieno[2,3-d]pyrimidin-7-yl}carbonyl)azetidine-3-carbonitrile], the IC50 was 1000 pM.
